Common to all, as to format: functional
Assay [1] relates to Staphylococcus aureus. The assay can be described thus: Antibacterial activity against Staphylococcus aureus ATCC 29213 by NCCLS protocol based broth microdilution method. (In general: In broth dilution the organism is exposed to a series of concentrations in liquid medium.)
Assay [2] deals with Staphylococcus aureus. The assay can be described thus: Antibacterial activity against Staphylococcus aureus MTCC 3160 after 24 hrs.
Assay [3] concerns Bacillus subtilis. The assay is described as follows: Antibacterial activity against Bacillus subtilis MTCC 441 after 24 hrs.
Assay [4] concerns Escherichia coli. The assay can be described thus: Antibacterial activity against Escherichia coli MTCC 443 after 24 hrs.
The subject of assay [5] is Staphylococcus aureus. The assay is described as follows: Antibacterial activity against methicillin resistant Staphylococcus aureus 090 by NCCLS protocol based broth microdilution method.
Assay [6] has as its system Staphylococcus aureus. The assay is described as follows: Antibacterial activity against Staphylococcus aureus ATCC 29213 after 20 hrs by cup plate method.
Assay [7] relates to Escherichia coli. The assay is described as follows: Antibacterial activity against Escherichia coli ATCC 25922 after 20 hrs by cup plate method.
Assay [8] concerns Staphylococcus aureus. The assay can be described thus: Antibacterial activity against Staphylococcus aureus.
For assay [9], the system named is Bacillus subtilis. The assay is described as follows: Antibacterial activity against Bacillus subtilis.
A further assay relates to Pseudomonas aeruginosa. The assay can be described thus: Antibacterial activity against Pseudomonas aeruginosa.
A further assay deals with Klebsiella pneumoniae. The assay is described as follows: Antibacterial activity against Klebsiella pneumoniae.
The test system of a further assay is Enterococcus faecalis. The assay can be described thus: Antibacterial activity against Enterococcus faecalis ATCC 29212 after 20 hrs by cup plate method.
For assay [10], the system named is Bacillus subtilis. The assay is described as follows: Antibacterial activity against Bacillus subtilis ATCC 10400 after 20 hrs by cup plate method.

Converted amounts (≈) assume the structure as drawn.

On to `O=[N+]([O-])c1ccc2nc(S)sc2c1`, for which, in the assay on Staphylococcus aureus [1], the lowest concentration to inhibit growth (MIC) was 12.5 µg/mL (≈ 58.9 µM).

As for `O=C(CNC(=O)c1ccccc1)NN1C(=O)CSC1c1ccccc1Cl` (centres undefined), the minimal inhibitory concentration (MIC) was 12.5 µg/mL (≈ 32.1 µM) against Staphylococcus aureus [2], 6.24 µg/mL (≈ 16 µM) in the assay with Bacillus subtilis [3] and 6.24 µg/mL (≈ 16 µM) in the assay with Escherichia coli [4].

Turning to `COc1ccc(/C=N/Nc2nc3cccc(C)c3s2)c(OC)c1`, the MIC in the assay on Staphylococcus aureus [5] turned out to be 22 µg/mL (≈ 67.2 µM).

With `Cc1cccc2nc(N/N=C/c3ccc(O)cc3O)sc12`, the MIC in the assay on Staphylococcus aureus [5] came to 20 µg/mL (≈ 66.8 µM).

In the assay with Staphylococcus aureus [5], `Cc1cccc2nc(N/N=C/c3cc(O)c(O)c(O)c3)sc12` had a minimum inhibitory concentration (MIC) of 18 µg/mL (≈ 57.1 µM).

Take `O=C(CNC(=O)c1ccccc1)NN1C(=O)CSC1c1ccc(Br)cc1` (centres undefined): the minimum inhibitory concentration (MIC) turned out to be 6.51 µg/mL (≈ 15 µM) against Staphylococcus aureus [2], 47.8 µg/mL (≈ 110 µM) against Bacillus subtilis [3] and 12.2 µg/mL (≈ 28 µM) against Escherichia coli [4].

Take `COc1ccc(-c2n[nH]c(N3C(=O)CS[C@H]3c3ccc(C)cc3)n2)cc1`: the MIC with Staphylococcus aureus [6] worked out at 64 µg/mL (≈ 175 µM); against Escherichia coli [7], 32 µg/mL (≈ 87.3 µM).

Regarding `O=C(CNC(=O)c1ccccc1)NN1C(=O)CSC1c1cccc([N+](=O)[O-])c1` (centres undefined), the MIC in the assay on Staphylococcus aureus [2] worked out at 25.2 µg/mL (≈ 63 µM); with Bacillus subtilis [3], 12.4 µg/mL (≈ 31 µM); in the assay with Escherichia coli [4], 25.2 µg/mL (≈ 63 µM).

In the case of `COc1ccc(-c2n[nH]c(N3C(=O)CS[C@H]3c3ccc(OC)cc3)n2)cc1`, the MIC against Staphylococcus aureus [6] came to 128 µg/mL (≈ 335 µM); with Escherichia coli [7], 6 µg/mL (≈ 15.7 µM).

Turning to `COc1ccc(-c2n[nH]c(N3C(=O)CS[C@H]3c3ccc(F)cc3)n2)cc1`, the minimal inhibitory concentration (MIC) in the assay on Staphylococcus aureus [6] was determined as 128 µg/mL (≈ 346 µM); in the assay on Escherichia coli [7], 64 µg/mL (≈ 173 µM).

In the case of `FC(F)(F)c1ccc2nc(S)sc2c1`, the lowest concentration to inhibit growth against Staphylococcus aureus [1] (MIC) was 3.12 µg/mL (≈ 13.3 µM).

Turning to `Fc1ccc(-c2csc(-n3nc(-c4ccc(F)cc4)cc3-c3cc4ccccc4[nH]3)n2)cc1`, the MIC with Staphylococcus aureus [8] was found to be 50 µg/mL (≈ 110 µM); with Bacillus subtilis [9] it was 50 µg/mL (≈ 110 µM); in the assay on Pseudomonas aeruginosa, 25 µg/mL (≈ 55 µM); with Klebsiella pneumoniae, 25 µg/mL (≈ 55 µM).

`COc1ccc(-c2n[nH]c(N3C(=O)CS[C@H]3c3ccc(Cl)cc3)n2)cc1`: the MIC in the assay on Staphylococcus aureus [6] was 8 µg/mL (≈ 20.7 µM); against Enterococcus faecalis it was 16 µg/mL (≈ 41.4 µM); in the assay on Bacillus subtilis [10] it was 16 µg/mL (≈ 41.4 µM); in the assay on Escherichia coli [7], 16 µg/mL (≈ 41.4 µM).

Regarding `COc1ccc(-c2n[nH]c(N3C(=O)CS[C@H]3c3ccc([N+](=O)[O-])cc3)n2)cc1`, the results for the MIC against Staphylococcus aureus [6] and in the assay on Escherichia coli [7] were 16 µg/mL (≈ 40.3 µM) and 32 µg/mL (≈ 80.5 µM), respectively.

Regarding `CCN(CC)c1ccc(C2SCC(=O)N2NC(=O)CNC(=O)c2ccccc2)cc1` (centres undefined), the MIC was 12.4 µg/mL (≈ 29 µM) against Staphylococcus aureus [2], 12.4 µg/mL (≈ 29 µM) with Bacillus subtilis [3] and 3.07 µg/mL (≈ 7.2 µM) with Escherichia coli [4].

With `Cc1ccc(C2SCC(=O)N2NC(=O)CNC(=O)c2ccccc2)cc1` (centres undefined), the minimal inhibitory concentration (MIC) in the assay on Staphylococcus aureus [2], in the assay on Bacillus subtilis [3] and with Escherichia coli [4] was 12.6 µg/mL (≈ 34 µM) each time.

In the case of `O=[N+]([O-])c1ccc(-c2cc(-c3cc4ccccc4[nH]3)n(-c3nc(-c4ccc(F)cc4)cs3)n2)cc1`, the MIC against Staphylococcus aureus [8] came out at 25 µg/mL (≈ 51.9 µM); in the assay on Bacillus subtilis [9] it was 25 µg/mL (≈ 51.9 µM); with Pseudomonas aeruginosa, 6.25 µg/mL (≈ 13 µM); against Klebsiella pneumoniae it was 12.5 µg/mL (≈ 26 µM).

For `O=C(N[C@H](CO)[C@H](O)c1ccc([N+](=O)[O-])cc1)C(Cl)Cl` [CHLORAMPHENICOL], the MIC came to 6.25 µg/mL (≈ 19.3 µM) against Staphylococcus aureus [8], 6.25 µg/mL (≈ 19.3 µM) with Bacillus subtilis [9], 6.25 µg/mL (≈ 19.3 µM) against Pseudomonas aeruginosa and 12.5 µg/mL (≈ 38.7 µM) against Klebsiella pneumoniae.

The term MIC denotes the lowest concentration that inhibits growth of the organism. Low readings indicate inhibition by little substance, high ones a need for much substance.

(Values after ChEMBL document CHEMBL4725221, “Thiazoles, Their Benzofused Systems, and Thiazolidinone Derivatives: Versatile and Promising Tools to Combat Antibiotic Resistance” (J Med Chem, 2020).)
